Measurements published in ChEMBL document CHEMBL1136234, “Cyclohexanedione herbicides are inhibitors of rat heart acetyl-CoA carboxylase” (Bioorg Med Chem Lett, 2003).

Columns and labels:
Acetyl-CoA carboxylase 1 [1] = target: T1, Acetyl-CoA carboxylase 1 (Rattus norvegicus, UniProt P11497); experiment: Inhibitory concentration against rat heart ACC by the carboxylation of acetyl-CoA with [14C]-HCO3- to form [14C]-malonyl CoA; 18-40 uM
Acetyl-CoA carboxylase 1 [2] = target: T1, Acetyl-CoA carboxylase 1; experiment: Inhibitory concentration against rat heart ACC by the carboxylation of acetyl-CoA with [14C]HCO3- to form [14C]-malonyl CoA

SMILES	IC50 (Acetyl-CoA carboxylase 1 [1]) [µM]	IC50 (Acetyl-CoA carboxylase 1 [2]) [µM]
CCSC(C)CC1CC(=O)C(/C(CC)=N/OC/C=C/Cl)=C(O)C1 (stereo unspecified) [CLETHODIM]	40	
CCC/C(=N\OCC)C1=C(O)CC(C2CCCSC2)CC1=O (stereo unspecified)	40	
CCC/C(=N\OCC)C1=C(O)CC(CC(C)SCC)CC1=O (stereo unspecified) [SETHOXYDIM]	40	
CCO/N=C(\CC)C1=C(O)CC(c2c(C)cc(C)cc2C)CC1=O (stereo unspecified) [TRALKOXYDIM]	40	
C=CCO/N=C(\CCC)C1=C(O)C(C(=O)OC)C(C)(C)CC1=O (stereo unspecified) [ALLOXYDIM]		> 100
CC/C(=N\OC/C=C/Cl)C1=C(O)CC(C2CCOCC2)CC1=O (stereo unspecified) [TEPRALOXYDIM]	40	
